Source: ChEMBL document CHEMBL3714744, “Aryl sulfonamides” (2009)
The source made the active and inactive calls. The rule behind the calls is not given here.

The compounds below were run on Mus musculus (assay: Inhibition of inflammatory bowel disease-associated growth retardation in MDR1a-knockout mouse at 50 mg/kg, sc dosed twice daily for 14 consecutive weeks starting at age 10 weeks). Details: not given.
Format: functional, organism-based

Structure (SMILES)	inhibition
CC(C)(C)c1ccc(S(=O)(=O)Nc2ccc(Cl)cc2C(=O)c2ccncc2)cc1	Active

Each compound was assayed against T1, C-C chemokine receptor type 9 (Homo sapiens, UniProt P51686) (assay: Antagonist activity against CCR9 in human MOLT4 cells assessed as inhibition of human recombinant TECK-induced calcium response pre-treated before TECK stimulation by Flou-4-AM dye based FLIPR assay). Details: not given.
T1 sequence (P51686 whole entry): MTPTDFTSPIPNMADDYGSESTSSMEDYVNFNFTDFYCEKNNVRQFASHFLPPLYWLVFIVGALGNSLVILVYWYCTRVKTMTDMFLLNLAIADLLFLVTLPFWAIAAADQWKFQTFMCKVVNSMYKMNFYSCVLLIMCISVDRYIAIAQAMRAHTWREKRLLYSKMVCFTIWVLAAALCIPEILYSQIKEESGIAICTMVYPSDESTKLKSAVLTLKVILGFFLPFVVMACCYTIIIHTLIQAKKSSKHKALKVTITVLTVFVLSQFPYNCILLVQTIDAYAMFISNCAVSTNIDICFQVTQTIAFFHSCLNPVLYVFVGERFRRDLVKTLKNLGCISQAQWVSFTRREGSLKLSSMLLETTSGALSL
Format: functional, cell-based, MOLT-4

Structure (SMILES)	IC50 [µM]
CC(=O)c1ccc(S(=O)(=O)Nc2ccc(Br)cc2C(=O)c2ccncc2)cc1	< 0.1
COC(=O)CCc1ccc(S(=O)(=O)Nc2ccc(Cl)cc2C(=O)c2ccnc(C)c2)cc1	< 0.1
Cc1cc(C(=O)c2cc(Cl)ccc2NS(=O)(=O)c2ccc(S(C)(=O)=O)cc2)ccn1	< 0.1
CS(=O)(=O)c1ccc(S(=O)(=O)Nc2ccc(Cl)cc2C(=O)c2cccnc2)cc1	< 0.1
O=C(c1ccncc1)c1cc(Cl)ccc1NS(=O)(=O)c1ccc([N+](=O)[O-])cc1	< 0.1

Same assay, conditions: molt-4

Structure (SMILES)	IC50
Cc1ncccc1C(=O)c1cc(Cl)ccc1NS(=O)(=O)c1ccc(OC(F)(F)F)cc1	in the range around 0.1 µM
COc1ccc(S(=O)(=O)Nc2ccc(Cl)cc2C(=O)c2ccccn2)cc1	in the range around 0.1 µM
Cc1ncccc1C(=O)c1cc(Cl)ccc1NS(=O)(=O)c1ccc(-c2cnco2)cc1	in the range around 1 µM
